Here are results for 21 molecules from patent KR20100022620A, “2-(2-옥소-2-페닐에틸설파닐)-벤즈이미다졸-4-카르복스아미드 유도체 또는 이의 약학적으로 허용가능한 염, 이의 제조방법 및 이를 유효성분으로 함유하는 폴리(adp-리보스)폴리머라제-1(parp-1)의 과활성에 의해 유발되는 질환의 예방 또는 치료용 약학적 조성물” (한국화학연구원, priority 2008, dated 2010).

In one test the target is T1, PARP-1 (Homo sapiens, UniProt P09874).
T1 construct: purchased TREVIGEN 4671-096-K
Put plainly: PARP-1 inhibition (Universal Colorimetric PARP Assay-Histones kit). As to conditions: for pIC50: IC50 determined only for drugs inhibiting 50% or more at 10 μM, 0.01 ~10 μM, 0.5U PARP, room temperature, 1 h; for PARP-1 inhibitory effect (in words): judged from Table 2. The class given is biochemical.

Another test relates to ischemic heart (허혈심장). Briefly: Antiischemic (cardioprotective) effect in in vivo ischemic heart model of the rat. As to conditions: 1 mg/kg; for reduction of myocardial infarction rate / cardioprotective effect (in words): rat, versus negative control 58.6%; for myocardial infarction rate (IS/AAR, infarct size/area at risk): via femoral vein, male rat, 45 min occlusion, 90 min reperfusion, negative control 58.6%.

pIC50: −log10 of the molar value. Bounds are passed on as bounds.

T1 sequence (P09874 whole entry): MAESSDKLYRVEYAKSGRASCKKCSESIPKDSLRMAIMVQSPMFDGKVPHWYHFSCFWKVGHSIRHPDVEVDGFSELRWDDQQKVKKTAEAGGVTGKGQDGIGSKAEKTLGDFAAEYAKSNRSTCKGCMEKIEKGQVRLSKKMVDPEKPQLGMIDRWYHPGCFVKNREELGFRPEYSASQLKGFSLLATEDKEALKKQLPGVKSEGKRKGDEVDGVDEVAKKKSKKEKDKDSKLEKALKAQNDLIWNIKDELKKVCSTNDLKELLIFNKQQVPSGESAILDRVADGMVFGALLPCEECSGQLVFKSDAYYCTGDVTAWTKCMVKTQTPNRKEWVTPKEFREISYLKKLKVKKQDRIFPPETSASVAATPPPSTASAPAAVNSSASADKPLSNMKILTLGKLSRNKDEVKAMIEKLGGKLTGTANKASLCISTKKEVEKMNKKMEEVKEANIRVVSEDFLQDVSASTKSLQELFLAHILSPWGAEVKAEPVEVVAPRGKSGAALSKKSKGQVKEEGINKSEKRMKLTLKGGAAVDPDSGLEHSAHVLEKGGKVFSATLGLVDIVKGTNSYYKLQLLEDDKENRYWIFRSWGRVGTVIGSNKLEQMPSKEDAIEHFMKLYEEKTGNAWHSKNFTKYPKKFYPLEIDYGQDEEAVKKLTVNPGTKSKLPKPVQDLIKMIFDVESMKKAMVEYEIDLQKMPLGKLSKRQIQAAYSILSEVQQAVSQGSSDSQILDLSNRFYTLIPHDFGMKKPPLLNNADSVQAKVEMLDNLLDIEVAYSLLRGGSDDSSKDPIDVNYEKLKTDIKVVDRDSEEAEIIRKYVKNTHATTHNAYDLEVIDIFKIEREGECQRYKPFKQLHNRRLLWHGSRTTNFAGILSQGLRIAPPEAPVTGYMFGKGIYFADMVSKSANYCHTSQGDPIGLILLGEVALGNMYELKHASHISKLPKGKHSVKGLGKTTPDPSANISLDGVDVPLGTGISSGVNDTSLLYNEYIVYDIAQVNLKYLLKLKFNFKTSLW

Take `NC(=O)c1cccc2[nH]c(SCC(=O)c3ccccc3F)nc12` [실시예 10, 2-[2-(2-플루오로페닐)-2-옥소-에틸설파닐]-1H-벤즈이미다졸-4-카르복스아미드]: the pIC50 against PARP-1 is 5.91.

`COc1ccccc1C(=O)CSc1nc2c(C(N)=O)cccc2[nH]1` [실시예 13, 2-[2-(2-메톡시페닐)-2-옥소-에틸설파닐]-1H-벤즈이미다졸-4-카르복스아미드] showed a pIC50 against PARP-1 of 5.95.

With `NC(=O)c1cccc2[nH]c(SCC(=O)c3cccc(F)c3)nc12` [실시예 8, 2-[2-(3-플루오로페닐)-2-옥소-에틸설파닐]-1H-벤즈이미다졸-4-카르복스아미드], at PARP-1, the pIC50 is 6.02 and the “PARP-1 inhibitory effect (in words)” value is “매우 뛰어난 PARP-1 억제효과”.

As to `Cc1cccc(C(=O)CSc2nc3c(C(N)=O)cccc3[nH]2)c1` [실시예 15, 2-[2-(3-메틸페닐)-2-옥소-에틸설파닐]-1H-벤즈이미다졸-4-카르복스아미드], the pIC50 against PARP-1 is 5.72.

Consider `NC(=O)c1cccc2[nH]c(SCC(=O)c3cccc(Br)c3)nc12` [실시예 11, 2-[2-(3-브로모페닐)-2-옥소-에틸설파닐]-1H-벤즈이미다졸-4-카르복스아미드], for which the negative-log IC50 (pIC50) against PARP-1 is 5.65.

Turning to `COc1ccc(C(=O)CSc2nc3c(C(N)=O)cccc3[nH]2)cc1` [실시예 14, 2-[2-(4-메톡시페닐)-2-옥소-에틸설파닐]-1H-벤즈이미다졸-4-카르복스아미드], the pIC50 against PARP-1 was 5.71.

As for `CN(C)c1ccc(C(=O)CSc2nc3c(C(N)=O)cccc3[nH]2)cc1` [실시예 5, 2-[2-(4-디메틸아미노페닐)-2-옥소-에틸설파닐]-1H-벤즈이미다졸-4-카르복스아미드], the pIC50 against PARP-1 is < 5.00.

On to `NC(=O)c1cccc(C(=O)CSc2nc3c(C(N)=O)cccc3[nH]2)c1` [실시예 18, 2-[2-(3-카르바모일페닐)-2-옥소-에틸설파닐]-1H-벤즈이미다졸-4-카르복스아미드], for which, in the test with ischemic heart (허혈심장), the “reduction of myocardial infarction rate / cardioprotective effect (in words)” value is recorded as “우수한 심장보호효과” and the “myocardial infarction rate (IS/AAR, infarct size/area at risk)” value is 37.5%. Moreover, at PARP-1, the pIC50 was 6.37 and the “PARP-1 inhibitory effect (in words)” value is on record as “매우 뛰어난 PARP-1 억제효과”.

Regarding `Cc1ccccc1C(=O)CSc1nc2c(C(N)=O)cccc2[nH]1` [실시예 12, 2-[2-(2-메틸페닐)-2-옥소-에틸설파닐]-1H-벤즈이미다졸-4-카르복스아미드], on PARP-1, the pIC50 is 6.02 and the “PARP-1 inhibitory effect (in words)” value is given as “매우 뛰어난 PARP-1 억제효과”.

`Cc1ccc(C)c(C(=O)CSc2nc3c(C(N)=O)cccc3[nH]2)c1` [실시예 3, 2-[2-(2,5-디메틸페닐)-2-옥소-에틸설파닐]-1H-벤즈이미다졸-4-카르복스아미드] showed a pIC50 against PARP-1 of 5.88.

For the molecule `NC(=O)c1cccc2[nH]c(SCC(=O)c3ccc(N4CCCC4)cc3)nc12` [실시예 6, 2-[2-(4-피롤리딘-1-일페닐)-2-옥소-에틸설파닐]-1H-벤즈이미다졸-4-카르복스아미드], the pIC50 on PARP-1 is < 5.00.

As to `NC(=O)c1cccc2[nH]c(SCC(=O)c3cc(Cl)ccc3Cl)nc12` [실시예 1, 2-[2-(2,5-디클로로페닐)-2-옥소-에틸설파닐]-1H-벤즈이미다졸-4-카르복스아미드], on PARP-1, the pIC50 was 5.98.

With `NC(=O)c1cccc2[nH]c(SCC(=O)c3ccc(N4CCCCC4)cc3)nc12` [실시예 17, 2-[2-(3-피페리딘-1-일페닐)-2-옥소-에틸설파닐]-1H-벤즈이미다졸-4-카르복스아미드], the pIC50 against PARP-1 is 5.85.

`COc1cccc(C(=O)CSc2nc3c(C(N)=O)cccc3[nH]2)c1` [실시예 7, 2-[2-(3-메톡시페닐)-2-옥소-에틸설파닐]-1H-벤즈이미다졸-4-카르복스아미드] gave a pIC50 against PARP-1 of 5.65.

On to `NC(=O)c1ccc(C(=O)CSc2nc3c(C(N)=O)cccc3[nH]2)cc1` [실시예 19, 2-[2-(4-카르바모일페닐)-2-옥소-에틸설파닐]-1H-벤즈이미다졸-4-카르복스아미드], for which, in the test on ischemic heart (허혈심장), the “reduction of myocardial infarction rate / cardioprotective effect (in words)” value is “우수한 심장보호효과” and the “myocardial infarction rate (IS/AAR, infarct size/area at risk)” value is on record as 36.3%. Moreover, on PARP-1, the pIC50 was 6.42 and the “PARP-1 inhibitory effect (in words)” value was “매우 뛰어난 PARP-1 억제효과”.

`NC(=O)c1cccc2[nH]c(SCC(=O)c3ccc(Cl)cc3Cl)nc12` [실시예 9, 2-[2-(2,4-디클로로페닐)-2-옥소-에틸설파닐]-1H-벤즈이미다졸-4-카르복스아미드]: at PARP-1, the pIC50 was 5.32.

Turning to `NC(=O)c1cccc2[nH]c(SCC(=O)c3cccc(N4CCCC4)c3)nc12` [실시예 16, 2-[2-(3-피롤리딘-1-일페닐)-2-옥소-에틸설파닐]-1H-벤즈이미다졸-4-카르복스아미드], the negative-log IC50 (pIC50) against PARP-1 was 5.92.

Take `NC(=O)c1cccc2[nH]c(SCC(=O)c3ccc(F)cc3)nc12` [실시예 4, 2-[2-(4-플루오로페닐)-2-옥소-에틸설파닐]-1H-벤즈이미다졸-4-카르복스아미드]: on PARP-1, the pIC50 was 6.03 and the “PARP-1 inhibitory effect (in words)” value was “매우 뛰어난 PARP-1 억제효과”.

Regarding `NC(=O)c1cccc2[nH]c(SCC(=O)c3ccc(C=O)cc3)nc12` [실시예 21, 2-[2-(4-포르밀페닐)-2-옥소-에틸설파닐]-1H-벤즈이미다졸-4-카르복스아미드], on PARP-1, the pIC50 is 6.12 and the “PARP-1 inhibitory effect (in words)” value is on record as “매우 뛰어난 PARP-1 억제효과”.

In the case of `NC(=O)c1cccc2[nH]c(SCC(=O)c3ccccc3)nc12` [실시예 20, 2-[2-페닐-2-옥소-에틸설파닐]-1H-벤즈이미다졸-4-카르복스아미드], the pIC50 against PARP-1 was < 5.00.

`NC(=O)c1cccc2[nH]c(SCC(=O)c3ccc(Br)cc3)nc12` [실시예 2, 2-[2-(4-브로모페닐)-2-옥소-에틸설파닐]-1H-벤즈이미다졸-4-카르복스아미드]: in the test with ischemic heart (허혈심장), the “reduction of myocardial infarction rate / cardioprotective effect (in words)” value was “음성대조군보다 유의성 있는 감소” and the “myocardial infarction rate (IS/AAR, infarct size/area at risk)” value was determined as 44.1%. At PARP-1, the pIC50 was 6.15 and the “PARP-1 inhibitory effect (in words)” value was “매우 뛰어난 PARP-1 억제효과”.
